Results: US6387955B1, “Enhanced anti-angiogenic activity of permanently charged derivatives of steroid hormones” (Pharmos Corporation, priority 1997, dated 2002)

Experiments:
[1] = system: gelatinase A (MMP-2), 72 kDa; test: Collagenolytic activity by zymography in human fibrosarcoma cell supernatant, gelatinase A; assay type: cell-based
Description: (§1) HT-1080 cells (CCL 121), derived from a metastatic lesion of a human fibrosarcoma and primary bovine endothelial cells were obtained from the American Type Culture collection (Rockville, Md.). Cells were maintained under an atmosphere of 5% CO2, in Dulbecco's Minimal Essential Medium (DMEM) supplemented with 10% fetal calf serum, glutamine, vitamins, non-essential amino acids and antibiotics (Biological Industries, Kibbutz Beth HaEmek, Israel).
(§2) Sub-confluent cell cultures were incubated for 6 to 24 hours in serum-free DMEM, either with or without various concentrations of TMI or tamoxifen, and the resultant supernatant was analyzed for collagenolytic activity. The collagenolytic activity was determined using a gelatin-impregnated (1 mg/ml, Difco, Detroit Mich.) SDS-PAGE 8% gel, as previously described, with minor modifications. Briefly, the culture media samples were separated on the substrate-impregnated gels under non-reducing conditions, followed by 30 min of incubation of 2.5% Triton X-100 (BDH, UK). The gels were then incubated for 16 hours at 37° C. in 50 mM TRIS, 0.2 M NaCl, 5 mM CaCl2, 0.02% BRIJ 35 (w/v) at pH 7.6. […] The intensity of the stained bands was then determined using a computerized densitometer (Molecular Dynamics Model 300A). […]

MCF-7 tumor = test: TBB in the MCF-7 model, daily dosing (preliminary data); assay type: in vivo, mice; settings: two weeks of daily dosing
From the text: Preliminary data on TBB in the MCF-7 model have also been generated. […] Administration of TBB to MCF-7 tumor-bearing mice caused significant tumor regression that amounted to 32% over two weeks of daily dosing. TMI induced a 20% regression over a 25 day time course.

[2] = system: gelatinase B (MMP-9), 92 kDa; test: Collagenolytic activity by zymography in human fibrosarcoma cell supernatant, gelatinase B; assay type: cell-based
Description: as §1, §2

Tolerability in mice = assay type: in vivo
MCF-7 tumors [3] = test: Growth of MCF-7 tumors implanted in ventral fat pad of nude mice, tumor size by MRI; assay type: in vivo; settings: for change in tumor size relative to day 0 (in words): slow-release pellet s.c. in flank, 25 day time course, MRI
Description: (§3) Female CD1-nu/nu athymic mice (6 weeks old) were obtained from the Weizmann Institute Department of Animal Services. MCF-7 cells, serially passed as described above, were detached from the culturing flasks with 0.03% EDTA in phosphate buffered saline (PBS) and washed several times in normal saline. Cells (10^7/innoculum) were then injected into the ventral fat pad at the level of the breast. Coincident with cell introduction, a slow-release pellet of estradiol (0.72 mg/pellet, 45-day release profile; Innovative Research, Sarasota, Fla.) was implanted subcutaneously in the flank of the animal. Mice were anesthetized with ketamine/Rompun (i.p.) for the surgical procedures. […] At this point, animals were randomized into four study groups. In the first, the estrogen pellet was removed and replaced with a slow-release TMI-laden pellet (6.3 mg, 45-day release) (n=5). In the second group, the estrogen pellet was removed and replaced with a tamoxifen pellet (n=7). The third group was treated with a blank (placebo) pellet (n=5), while the fourth group was reimplanted with an estradiol pellet (n=4). TMI and placebo-treated animals were imaged (under ketamine/Rompun anesthesia) either immediately before pellet exchange (day 0) or at day 3, 6, 12 and 25 after pellet exchange.
MRI images were recorded with a Bruker 4.7 (tesla)/30 Biospec spectrometer (Bruker Medizintechnik, Rheinstetten, Germany). 1H Spin-echo images were recorded at 200.12 MHz using a custom-made 4.5 cm rf coil with an image data matrix of 256×128 pixels. Pilot scans of the tumors were completed using a fast transverse multi-slice spin-echo sequence (giving T1-weighted spectra; inter-echo time (TE)=16 msec, recovery time (TR)=500 msec) followed by T2-weighted sequences in which axial slices perpendicular to the spine (i.e., a coronal orientation) were recorded. In the latter case, spin-echo images were obtained using a 4 cm field of view, 1 mm slice thickness, 1.2 mm slice-to-slice distance and a four-sequence average. The TE and TR were optimized to provide the best image contrast generating values of 80 and 3200 msec, respectively. This gave a total imaging time of approximately 30 min. […] Tumor size was calculated using a slice-to-slice reconstruction in which the slice surface area was obtained from histograms provided by the resident Bruker software package using the following relationship: […]
where XSA is the cross-sectional area of an internal slice, ES is the cross-sectional area of an edge slice, l is the slice thickness and ssd is the distance from the middle of one slice to the middle of the next. For image analysis, the average pixel intensity of viable portions of MCF-7 tumors was determined from a central tumor slice using histograms generated by the dedicated Bruker software package. […]

MCF-7 tumors [4] = test: Tumor necrosis in MCF-7 tumors by T2-weighted MRI; assay type: in vivo, nude mice
Description: as §3
MRI images were recorded with a Bruker 4.7 (tesla)/30 Biospec spectrometer (Bruker Medizintechnik, Rheinstetten, Germany). 1H Spin-echo images were recorded at 200.12 MHz using a custom-made 4.5 cm rf coil with an image data matrix of 256×128 pixels. Pilot scans of the tumors were completed using a fast transverse multi-slice spin-echo sequence (giving T1-weighted spectra; inter-echo time (TE)=16 msec, recovery time (TR)=500 msec) followed by T2-weighted sequences in which axial slices perpendicular to the spine (i.e., a coronal orientation) were recorded. In the latter case, spin-echo images were obtained using a 4 cm field of view, 1 mm slice thickness, 1.2 mm slice-to-slice distance and a four-sequence average. The TE and TR were optimized to provide the best image contrast generating values of 80 and 3200 msec, respectively. This gave a total imaging time of approximately 30 min. Under the conditions reported, the in-plane resolution was 155×310 μm. Tumor size was calculated using a slice-to-slice reconstruction in which the slice surface area was obtained from histograms provided by the resident Bruker software package using the following relationship:
where XSA is the cross-sectional area of an internal slice, ES is the cross-sectional area of an edge slice, l is the slice thickness and ssd is the distance from the middle of one slice to the middle of the next. For image analysis, the average pixel intensity of viable portions of MCF-7 tumors was determined from a central tumor slice using histograms generated by the dedicated Bruker software package. […] Fibrosis was defined as those areas manifesting a decrease in pixel intensity of […].
In vivo tumor histology was assessed for TMI and placebo-treated tumors using T2-weighted MR images. […] At this time, the area of necrosis was two-fold higher than that observed on day 0 (increasing from an average of 20% to approximately 40%).

[5] = system: MCF-7 human breast cancer; settings: MCF-7 human breast cancer implanted in nude mice; cited from earlier work
[6] = direct comparison, human fibrosarcoma cells
[7] = doses 0.5 to 20 μM, 6 and 24 hours, result at or up to 20 μM

Compound | potency relative to TMI as inhibitor of 72 kDa (gelatinase A, MMP-2) collagenase [1, 6] | tumor regression (MCF-7 tumor) | potency relative to TMI as inhibitor of 92 kDa (gelatinase B, MMP-9) collagenase [2, 6] | adverse effects (Tolerability in mice; doses as high as 10 mg/Kg given daily over a two week time course) | tolerability (Tolerability in mice; mice) | change in tumor size relative to day 0 (in words) (MCF-7 tumors [3]) | inhibition of gelatinase A (MMP-2) collagenolytic activity [1, 7] | inhibition of gelatinase B (MMP-9) collagenolytic activity [2, 7] | maximum extent of necrosis (MCF-7 tumors [4]; preliminary comparison of TMI and tamoxifen) | onset of tumor necrosis (MCF-7 tumors [4]; sampling day after pellet exchange) | effect on tumor growth [5] | tolerance of tumors to the drug and regrowth over time (MCF-7 tumors [3]; MCF-7 tumors in nude mice)
Tamoxifen benzyl bromide [TBB] | more potent than TMI | 32% | more potent than TMI | no adverse effects | well tolerated | – | – | – | – | – | – | –
C[C@]12CC[C@@H]3c4ccc(O)cc4CC[C@H]3[C@@H]1CC[C@@H]2O [estrogen, estradiol] | – | – | – | – | – | more than doubled in size | – | – | – | – | – | –
CC/C(=C(\c1ccccc1)c1ccc(OCCN(C)C)cc1)c1ccccc1 [tamoxifen, reference compound] | – | – | – | – | – | tumoristatic | no significant inhibitory activity | no significant inhibitory activity | 50% | ≤ 3 days | merely slowed tumor growth | became tolerant to the effects of the drug and began to regrow over time
